Assay results published in patent publication US20260347333A1, “NOVEL COMPOUND AND USE THEREOF” (PROTIER BIOTECH INC., priority 2023, published 2026).

Target: T1, Cereblon (CRBN) protein (Homo sapiens, UniProt Q96SW2)
T1 construct: DNA label for qPCR detection (not a peptide tag); host or cells: HEK-293
Test: CRBN binding affinity, E3scan (% Ctrl)
Details: lower % Ctrl = stronger binding, DMSO 100% Ctrl
Description: As used herein, the term “Cereblon (CRBN)” refers to a protein encoded by a human CRBN gene located at a cytogenetic location of 3p26.2 and a molecular location between base pairs 3,148,489 and 3,179,716 on chromosome 3 (UCSC Genome Browser on Human, December 2013 (GRCh38/hg38) assembly). CRBN is a substrate recognition component of a DCX (DDB1-CUL4-X-box) E3 protein ligase complex mediating ubiquitination and subsequent proteasomal degradation of a target protein. The DCX (DDB1-CUL4-X-box) E3 protein ligase complex may comprise at least CRBN, CUL4A, DDB1, and RBX1. The CRBN protein has two isoforms generated by alternative splicing: isoform 1 has 442 amino acids and a molecular weight of 50,546 Da; and isoform 2 has 441 amino acids and a molecular weight of 50,475 Da.
To confirm the binding affinity of the compounds synthesized in the Preparation Examples for a Cereblon (CRBN) protein, the following experiment was performed using E3scan™ from Eurofins.
Specifically, CRBN was produced using a HEK-293 cell line and labeled with DNA for qPCR detection. Streptavidin-coated magnetic beads were treated with a biotinylated small-molecule ligand at room temperature for 30 minutes to generate an affinity resin for E3scan analysis. The liganded beads were blocked with excess biotin and washed with a blocking buffer (SeaBlock (Pierce), 1% BSA, 0.05% Tween 20, 1 mM DTT) to remove unbound ligands and prevent non-specific binding. […] The test compound was prepared as a 100× stock in 100% DMSO and diluted directly into the assay solution. All reactions were performed in a polypropylene 384-well plate with a final reaction volume of 0.02 mL. […] Then, the beads were resuspended in an elution buffer (1×PBS, 0.05% Tween 20, 0.5 μM non-biotinylated affinity ligand) and incubated with shaking at room temperature for 30 minutes. The CRBN concentration in the eluate was measured by qPCR. […] A lower ‘% Ctrl’ indicates a stronger binding affinity.

T1 sequence (Q96SW2 whole entry): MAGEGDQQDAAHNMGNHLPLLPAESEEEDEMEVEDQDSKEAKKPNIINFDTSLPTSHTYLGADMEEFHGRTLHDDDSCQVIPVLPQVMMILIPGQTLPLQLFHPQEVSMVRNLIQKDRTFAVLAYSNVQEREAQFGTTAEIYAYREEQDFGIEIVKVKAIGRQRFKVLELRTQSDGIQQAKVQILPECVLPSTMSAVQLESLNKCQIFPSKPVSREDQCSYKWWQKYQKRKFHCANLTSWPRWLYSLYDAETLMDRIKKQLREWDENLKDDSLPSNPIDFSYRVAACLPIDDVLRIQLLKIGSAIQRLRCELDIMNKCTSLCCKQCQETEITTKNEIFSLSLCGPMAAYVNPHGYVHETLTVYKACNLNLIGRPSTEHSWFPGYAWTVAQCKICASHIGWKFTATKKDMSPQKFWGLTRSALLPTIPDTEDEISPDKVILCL

| Compound | remaining activity at 5 µM [%] |
| --- | --- |
| O=C1CCC(N2Cc3cc(C(=O)c4ccccc4)ccc3C2=O)C(=O)N1 (stereo not shown) [Compound 1, 3-(5-benzoyl-1-oxoisoindolin-2-yl)piperidine-2,6-dione] | 1 to 10 |
| O=C1CCC(N2Cc3cc(C(=O)c4cc5ccccc5[nH]4)ccc3C2=O)C(=O)N1 (stereo not shown) [Compound 3, 3-(5-(1H-indole-2-carbonyl)-1-oxoisoindolin-2-yl)piperidine-2,6-dione] | 0 to 0.1 |
| O=C1CCC(N2Cc3cc(C(=O)c4c[nH]c5ccccc45)ccc3C2=O)C(=O)N1 (stereo not shown) [Compound 4, 3-(5-(1H-indole-3-carbonyl)-1-oxoisoindolin-2-yl)piperidine-2,6-dione] | 0.1 to 1 |
| O=C1CCC(N2Cc3nc(C(=O)c4ccccc4)ccc3C2=O)C(=O)N1 (stereo not shown) [Compound 5, 3-(2-benzoyl-5-oxo-5,7-dihydro-6H-pyrrolo[3,4-b]pyridin-6-yl)piperidine-2,6-dione] | 1 to 10 |
| O=C1CCC(N2Cc3cc(C(=O)n4ncc5ccccc54)ccc3C2=O)C(=O)N1 (stereo not shown) [Compound 6, 3-(5-(1H-indazole-1-carbonyl)-1-oxoisoindolin-2-yl)piperidine-2,6-dione] | 0 to 0.1 |
| O=C1CCC(N2Cc3cc(C(=O)N4CCCC4)ccc3C2=O)C(=O)N1 (stereo not shown) [Compound 7, 3-(1-oxo-5-(pyrrolidine-1-carbonyl)isoindolin-2-yl)piperidine-2,6-dione] | 0 to 0.1 |
| O=C1CCC(N2C(=O)c3ccc(C(=O)c4cc5ccccc5[nH]4)cc3C2=O)C(=O)N1 (stereo not shown) [Compound 10, 2-(2,6-dioxopiperidin-3-yl)-5-(1H-indole-2-carbonyl)isoindoline-1,3-dione] | 1 to 10 |
| O=C1CCC(N2Cc3cc(C(=O)C4CCN(Cc5ccccc5)CC4)ccc3C2=O)C(=O)N1 (stereo not shown) [Compound 11, 3-(5-(1-benzylpiperidine-4-carbonyl)-1-oxoisoindolin-2-yl)piperidine-2,6-dione] | 0 to 0.1 |
| O=C1CCC(N2Cc3cc(C(=O)c4ccccn4)ccc3C2=O)C(=O)N1 (stereo not shown) [Compound 12, 3-(1-oxo-5-picolinoylisoindolin-2-yl)piperidine-2,6-dione] | 0 to 0.1 |
| O=C1CCC(N2Cc3cc(C(=O)c4ccc(Nc5ccccc5)cc4)ccc3C2=O)C(=O)N1 (stereo not shown) [Compound 15, 3-(1-oxo-5-(4-(phenylamino)benzoyl)isoindolin-2-yl)piperidine-2,6-dione] | 0 to 0.1 |
| O=C1CCC(N2Cc3cc(C(=O)c4cccc(Nc5ccccc5)c4)ccc3C2=O)C(=O)N1 (stereo not shown) [Compound 16, 3-(1-oxo-5-(3-(phenylamino)benzoyl)isoindolin-2-yl)piperidine-2,6-dione] | 0 to 0.1 |
| O=C1CCC(N2Cc3cc(C(=O)c4n[nH]c5ccccc45)ccc3C2=O)C(=O)N1 (stereo not shown) [Compound 17, 3-(5-(1H-indazole-3-carbonyl)-1-oxoisoindolin-2-yl)piperidine-2,6-dione] | 0 to 0.1 |
| O=C1CCC(N2Cc3cc(C(=O)c4ccc5cn[nH]c5c4)ccc3C2=O)C(=O)N1 (stereo not shown) [Compound 21, 3-(5-(1H-indazole-6-carbonyl)-1-oxoisoindolin-2-yl)piperidine-2,6-dione] | 0 to 0.1 |
| CNc1ccc2cc(C(=O)c3ccc4c(c3)CN(C3CCC(=O)NC3=O)C4=O)[nH]c2c1 (stereo not shown) [Compound 22, 3-(5-(6-(methylamino)-1H-indole-2-carbonyl)-1-oxoisoindolin-2-yl)piperidine-2,6-dione] | 0 to 0.1 |
| O=C1CCC(N2Cc3cc(C(=O)c4c[nH]c5ccc(-c6ccccc6)cc45)ccc3C2=O)C(=O)N1 (stereo not shown) [Compound 24, 3-(1-oxo-5-(5-phenyl-1H-indole-3-carbonyl)isoindolin-2-yl)piperidine-2,6-dione] | 10 to 35 |
| O=C1CCC(N2Cc3cc(C(=O)c4cn(-c5ccccc5)c5ccc(-c6ccccc6)cc45)ccc3C2=O)C(=O)N1 (stereo not shown) [Compound 25, 3-(5-(1,5-diphenyl-1H-indole-3-carbonyl)-1-oxoisoindolin-2-yl)piperidine-2,6-dione] | 10 to 35 |
| O=C1CCC(N2Cc3cc(C(=O)c4cccc(-c5ccccc5)c4)ccc3C2=O)C(=O)N1 (stereo not shown) [Compound 26, 3-(5-([1,1′-biphenyl]-3-carbonyl)-1-oxoisoindolin-2-yl)piperidine-2,6-dione] | 0 to 0.1 |
| O=C1CCC(N2Cc3cc(C(=O)c4cc(-c5ccccc5)c[nH]4)ccc3C2=O)C(=O)N1 (stereo not shown) [Compound 27, 3-(1-oxo-5-(4-phenyl-1H-pyrrole-2-carbonyl)isoindolin-2-yl)piperidine-2,6-dione] | 0 to 0.1 |
| O=C1CCC(N2Cc3cc(C(=O)c4ccc(-c5ccccc5)[nH]4)ccc3C2=O)C(=O)N1 (stereo not shown) [Compound 28, 3-(1-oxo-5-(5-phenyl-1H-pyrrole-2-carbonyl)isoindolin-2-yl)piperidine-2,6-dione] | 1 to 10 |
| O=C1CCC(N2Cc3cc(C(=O)c4cc(-c5ccccc5)cs4)ccc3C2=O)C(=O)N1 (stereo not shown) [Compound 30, 3-(1-oxo-5-(4-phenylthiophene-2-carbonyl)isoindolin-2-yl)piperidine-2,6-dione] | 0 to 0.1 |
| O=C1CCC(N2Cc3cc(C(=O)N4Cc5cccc6cccc4c56)ccc3C2=O)C(=O)N1 (stereo not shown) [Compound 31, 3-(5-(1,2-dihydrobenzo[cd]indole-1-carbonyl)-1-oxoisoindolin-2-yl)piperidine-2,6-dione] | 0 to 0.1 |
| O=C1CCC(N2Cc3cc(C(=O)c4cc5ccccc5o4)ccc3C2=O)C(=O)N1 (stereo not shown) [Compound 34, 3-(5-(benzofuran-2-carbonyl)-1-oxoisoindolin-2-yl)piperidine-2,6-dione] | 0 to 0.1 |
| O=C1CCC(N2Cc3cc(C(=O)c4cn(-c5ccccc5)c5ccccc45)ccc3C2=O)C(=O)N1 (stereo not shown) [Compound 35, 3-(1-oxo-5-(1-phenyl-1H-indole-3-carbonyl)isoindolin-2-yl)piperidine-2,6-dione] | 0 to 0.1 |
| O=C1CCC(N2Cc3cc(C(=O)N4Cc5ccccc5C4)ccc3C2=O)C(=O)N1 (stereo not shown) [Compound 36] | 0 to 0.1 |
| O=C1CCC(N2Cc3cc(C(=O)c4coc5ccccc45)ccc3C2=O)C(=O)N1 (stereo not shown) [Compound 37, 3-(5-(benzofuran-3-carbonyl)-1-oxoisoindolin-2-yl)piperidine-2,6-dione] | 1 to 10 |
